Key:
[1] = tested on: healthy colonic epithelium of the rat; test: Tissue staining by charged dyes, healthy colonic sacs; conditions: 15 min incubation, mean±SEM
Protocol: Colonic sacs, of either healthy or inflamed rat colonic tissues, were prepared as described above and filled, in separate studies, with 0.5 ml of aqueous solutions (containing 2% v/v DMSO) of either of the cationic dye, hematoxylin (1 mg/ml), or the anionic dye, eosin B (0.5 mg/ml). The sacs were incubated in 15 ml of PBS containing glucose (10 mM), at 37° C. (glass vial) for 15 min in a shaking bath, after which the sacs were cut open, measured for their surface area (ruler) and rinsed (PBS) three times. The tissues incubated with eosin B were then homogenized in 3 ml of absolute methanol, while the tissues incubated with hematoxylin were homogenized in 3 ml of absolute ethanol. The concentration of dyes in the tissue homogenates was measured spectrophotometrically (Uvikon 933, Kontron Switzerland), at 292 nm (hematoxylin) or 523 nm (eosin B).

[2] = tested on: inflamed colonic epithelium of the rat; test: Tissue staining by charged dyes, inflamed colonic sacs; conditions: 15 min incubation, mean±SEM
Protocol: Twenty-four hours prior to colitis induction the rats were deprived of food, but allowed free access to water. The water contained 10 mg/l of the laxatives sennoside-A and sennoside-B (X-Prep Liquid®, Rafa Pharmaceuticals, Israel) and sucrose (200 g/l). With the rats under light ether inhalation anesthesia, colitis was induced by intracolonic administration of 30 mg of dinitrobenzensulfonic acid (DNBS) dissolved in 1 ml of an ethanolic solution 25% (v/v). The solution was instilled slowly over 20 s via a flexible, perforated foley catheter, which was then immediately removed, leaving the rats in an upside down position for another 40 s. Colonic sacs, of either healthy or inflamed rat colonic tissues, were prepared as described above and filled, in separate studies, with 0.5 ml of aqueous solutions (containing 2% v/v DMSO) of either of the cationic dye, hematoxylin (1 mg/ml), or the anionic dye, eosin B (0.5 mg/ml). The sacs were incubated in 15 ml of PBS containing glucose (10 mM), at 37° C. (glass vial) for 15 min in a shaking bath, after which the sacs were cut open, measured for their surface area (ruler) and rinsed (PBS) three times. […] The concentration of dyes in the tissue homogenates was measured spectrophotometrically (Uvikon 933, Kontron Switzerland), at 292 nm (hematoxylin) or 523 nm (eosin B).

[3] = tested on: epithelium of the rat intestine; test: Tissue uptake of free and liposomal SOD and TMN in intestinal sacs; conditions: for tissue uptake: 60 min incubation, mean±SEM
Protocol: The abdomens of anesthetized healthy Sabra rats were cut open and 10 cm long segments of the distal colon were excised, separated and rinsed with PBS. Colon sacs (5 cm each) were prepared by tying one end with 3/0 silk suture, filling with 0.4 ml of free or liposomal suspension of either TMN or FITC-SOD (diluted×10 in PBS), and tying at the other end.
The sacs were incubated in 15 ml of PBS, containing 10 mM glucose, at 37° C., in a glass vial in a shaking bath for 60 min. At the end of the incubation, the sacs were cut open, rinsed three times by PBS immersion and weighed. For detection of FITC-SOD attachment and uptake (subsequently referred to generally as uptake, as internalization and attachment cannot be discriminated using these methods), the colon sac preparations were homogenized (Polytron, Kinematicas, Berlin, Germany) in a solution containing isopropanol: pH 9.0 borate buffer 9:1. One milliliter of the homogenate was centrifuged at 14,000 rpm for 15 min. The level of fluorescence in the supernatant was then measured by a spectrofluorimeter (Perkin-Elmer LS-SB, Bucks, England) at λ excitation=495, λ emission=525. For the detection of TMN uptake, tissues were homogenized in water containing 1% v/v TritonX-100. One ml of the homogenate was centrifuged (5000 rpm, 15 min), and TMN concentration was measured by EPR.

jejunal mucosa = test: Local oxidative stress (hypoxanthine/xanthine oxidase-FeSO4) in perfused rat jejunum; assay type: in vivo; conditions: 20 min perfusion pretreatment before hydroxyl radical induction; for tissue LDH activity: mean±SEM
Protocol: Hydroxyl radicals were induced in the jejunum (15 cm long segment) of each of four group of anaesthetized Sabra rats, by the perfusion of a mixture of 6 mM hypoxanthine, 3 U/ml of xanthine oxidase, 10 mM FeSO4 and 1 mM EDTA in saline over 30 min, using a closed rat jejunal loop system at a rate of 1 ml/min, as described elsewhere [Kohen R. et al. J. Biol Chem. 1992, 267:21349-21354].
In separate studies two groups of rats (4 rats in each group) were perfused with either 35 U/ml SOD or liposomal SOD over 20 min. A 10 min saline rinse was then performed, followed by the hydroxyl radicals induction as described above. Similarly, the other two groups (4 rats each) were perfused with 5 mM free TMN or liposomal TMN over 20 min. A 10 min saline rinse was then performed, followed by hydroxyl radicals induction as described above. Control studies included (a) a group of rats, perfused with normal saline over 30 minutes prior to the oxidative damage induction, (b) a group of rats, perfused with normal saline for 20 min (naive control). At the end of each study, the perfused jejunal segment was separated from the anaesthetized animal, the mucosal epithelial layer delicately scraped and homogenized in 5 ml of distilled water on ice.
Assuming that tissue insult would cause leakage of enterocyte contents, the induced damage was characterized by measuring tissue (a) activity of lactate dehydrogenase (LDH) at 340 nm with pyruvic acid as the substrate and NADH as the electron donor. For this purpose, 1 ml of the tissue homogenate was centrifuged at 5000 g for 15 min. LDH activity was measured in the supernatant; (b) potassium levels by atomic absorption. All measurements were repeated four times, and the results were normalized to tissue dry weight.

tumor recurrence = conditions: animal model, peritoneal wound site; cited from earlier work

| Compound | dye attachment to healthy colonic epithelium [1] [μg/cm^2] | dye attachment to inflamed colonic epithelium [2] [μg/cm^2] | tissue uptake [3] | tissue potassium levels (jejunal mucosa) [μmol/mg tissue] | tissue LDH activity (jejunal mucosa) [U/mg tissue] | reduction of tumor recurrence (tumor recurrence) [%] | tissue uptake relative to free SOD uptake [3] [fold] |
| --- | --- | --- | --- | --- | --- | --- | --- |
| O=C(O)c1ccccc1-c1c2cc([N+](=O)[O-])c(=O)c(Br)c-2oc2c(Br)c(O)c([N+](=O)[O-])cc12 [eosin B] | 0.12±0.011 | 0.19±0.012 | – | – | – | – | – |
| Oc1cc2c(cc1O)[C@@H]1c3ccc(O)c(O)c3OC[C@]1(O)C2 [hematoxylin] | 26.2±2.8 | 19.6±1.36 | – | – | – | – | – |
| superoxide dismutase [native SOD] | – | – | 2.5±1.6 % uptake of initial amount | 0.37±0.03 | 11.8±0.3 | 50 | – |
| catalase | – | – | – | – | – | 40 | – |
| CC1(C)CC(N)CC(C)(C)N1[O] [free TMN, 4-amino tempol] | – | – | 6.8±1.1 % uptake of initial amount | 0.33±0.08 | 9.0±1.3 | – | 3 |

Source: patent US20070212403A1, “Method for Selecting Cationic or Anionic Liposomes for Treatment of a Mucosa Membrane, and Kit Comprising the Same” (Yissum Research Development Company of the Hebrew …, priority 2003, published 2007)
